# Like-named read-outs stand apart in the source and are kept apart here.
# Assays:
# Assay in all cases: MIC, microdilution broth method
# EMRSA15 = type: cell-based, Staphylococcus aureus
# VSE775 = type: cell-based, Enterococcus faecalis; settings: VSE775; in µg/mL
# EMRSA16 = type: cell-based, Staphylococcus aureus
# VRE12204 = type: cell-based, Enterococcus faecium; settings: VRE12204; in µg/mL
# VRE12201 = type: cell-based, Enterococcus faecalis; settings: VRE12201; in µg/mL
# MSSA9144 = type: cell-based, Staphylococcus aureus; settings: MSSA9144; in µg/mL
# M6 = type: cell-based; settings: M6; Normal (no PMBN); in µg/mL
# Ab17978 = type: cell-based; settings: Ab17978; Normal (no PMBN); in µg/mL
SMILES,"MIC (EMRSA15; EMRSA15, in µg/mL)",MIC (VSE775),"MIC (EMRSA16; EMRSA16, in µg/mL)",MIC (VRE12204),MIC (VRE12201),MIC (MSSA9144),"MIC, EMRSA15 (EMRSA15; EMRSA15 (Table 16, role of the terminal pyrimidine ring), in µg/mL)","MIC, EMRSA16 (EMRSA16; EMRSA16 (Table 16, role of the terminal pyrimidine ring), in µg/mL)",fold reduction (potentiation) in MIC compared to the parent fluoroquinolone (EMRSA15; EMRSA-15),fold reduction (potentiation) in MIC compared to the parent fluoroquinolone (EMRSA16; EMRSA-16),MIC (M6),MIC (Ab17978),"MIC (EMRSA15; Staphylococcus aureus, Staphylococcus aureus (EMRSA15), Table 12, read-out: MIC) [µg/mL]","MIC (EMRSA16; Staphylococcus aureus (EMRSA16), Table 12, read-out: MIC) [µg/mL]"
O=C(O)c1cn(C2CC2)c2cc(N3CCN(Cc4ccc(I)cc4)CC3)c(F)cc2c1=O,4,2,4,4,1-2,0.12-0.25,,,,,,,,
"O=C(O)c1cn(C2CC2)c2cc(N3CCN(Cc4ccc(-n5cncn5)cc4)CC3)c(F)cc2c1=O [Compound 2.36, 7-(4-(4-(1H-1,2,4-triazol-1-yl)benzyl)piperazin-1-yl)-1-cyclopropyl-6-fluoro-4-oxo-1,4-dihydroquinoline-3-carboxylic acid]",16-32,1,16,8,0.5,0.12,,,,,,,,
"CCn1cc(C(=O)O)c(=O)c2cc(F)c(N3CCN(Cc4ccc(-n5cccn5)cc4)CC3)cc21 [Compound 3.30, 7-(4-(4-(1H-pyrazol-1-yl)benzyl)piperazin-1-yl)-1-ethyl-6-fluoro oxo-1-4-dihydroquinoline-3-carboxylic acid]",16-32,8,32,16,4-8,0.5,,,,,,,,
"CCn1cc(C(=O)O)c(=O)c2cc(F)c(N3CCN(Cc4ccc(-n5cncn5)cc4)CC3)cc21 [Compound 3.32, 7-(4-(4-(1H-1,2,4-triazol-1-yl)benzyl)piperazin-1-yl)-1-ethyl-6-fluoro-4-oxo-1,4-dihydroquinoline-3-carboxylic acid]",,8,,16,8,1,,,,,,,,
"CCn1cc(C(=O)O)c(=O)c2cc(F)c(N3CCN(Cc4ccc(-c5noc(C)n5)cc4)CC3)cc21 [Compound 3.36, 1-ethyl-6-fluoro-7-(4-(4-(5-methyl-1,2,4-oxadiazol-3-yl)-benzyl)piperazin-1-yl)-4-oxo-1,4-dihydroquinone-3-carboxylic acid]",16-32,8,32,8,4,0.25,,,,,,,,
"CCn1cc(C(=O)O)c(=O)c2cc(F)c(N3CCNCC3)nc21 [Enoxacin, enoxacin, reference compound]",,16,,4-8,8,2,,,,,,,,
C[C@H]1COc2c(N3CC[C@@H](N)C3)c(F)cc3c(=O)c(C(=O)O)cn1c23 [KSN-L44],,,,,,,32,32,,,,,,
CCn1cc(C(=O)O)c(=O)c2cc(F)c(N3CCN(Cc4cccc5ccccc45)CC3)nc21 [ML-77-025],2-8,16,2-4,4,8,0.5-1,,,64-128 fold,64-128 fold,,,,
O=C(O)c1cn(C2CC2)c2cc(N3CCN(Cc4ccc5ccccc5c4)CC3)c(F)cc2c1=O [ML-77-036],2,0.5-2,2,2,0.5,0.12,,,,,4-32,8,,
O=C(O)c1cn(C2CC2)c2cc(N3CCN(Cc4ccc(F)c5ccccc45)CC3)c(F)cc2c1=O [ML-77-048],4,8,8,,8,4,,,,,64,8,,
O=C(O)c1cn(C2CC2)c2cc(N3CCN(Cc4cccc5cccnc45)CC3)c(F)cc2c1=O [ML-77-052],64,4,,,2,0.5,,,,,4,0.25,,
O=C(O)c1cn(C2CC2)c2cc(N3CCN(Cc4cc(=O)[nH]c5ccccc45)CC3)c(F)cc2c1=O [ML-77-058],,,,,0.5-4,0.25-1,,,,,4-32,,,
O=C(O)c1cn(C2CC2)c2cc(N3CCN(Cc4cccc5c4CCCC5)CC3)c(F)cc2c1=O [ML-77-076],1,2,1-2,1-2,1-2,0.25,,,,,8,,,
CCn1cc(C(=O)O)c(=O)c2cc(F)c(N3CCN(Cc4cccc5c4CCCC5)CC3)cc21 [ML-77-077],2,2,2,1-2,2,1,,,,,64,32-128,,
CCn1cc(C(=O)O)c(=O)c2cc(F)c(N3CCN(Cc4cccc5ccsc45)CC3)cc21 [ML-77-079],2,4,2,1-2,0.5-2,0.25,,,,,32,,,
"CCn1cc(C(=O)O)c(=O)c2cc(F)c(N3CCN(Cc4ccc(-c5ccccc5)cc4)CC3)cc21 [ML-77-134, 7-(4-([1,1′-biphenyl]-4-ylmethyl)piperazin-1-yl)-1-ethyl-6-fluoro-4-oxo-1,4-dihydroquinoline-3-carboxylic acid]",2,2,4,2,4,2,,,,,64,,,
"C[C@H]1COc2c(N3CCN(Cc4cccc5ccccc45)CC3)c(F)cc3c(=O)c(C(=O)O)cn1c23 [ML-77-140, (S)-9-fluoro-3-methyl-10-(4-(naphthalen-1-ylmethyl)piperazin-1-yl)-7-oxo-2,3-dihydro-7H-[1,4]oxazino[2,3,4-ij]quinoline-6-carboxylic acid]",4,1-2,2-4,1-2,0.5-1,0.125-1,,,,,,,,
O=C(O)c1cn(C2CC2)c2cc(N3CCN(c4cccc5ccccc45)CC3)c(F)cc2c1=O [ML-77-168],1-2,2,1,1,0.25-0.5,1,,,,,,,,
"CCn1cc(C(=O)O)c(=O)c2cc(F)c(N3CCN(c4cccc5ccccc45)CC3)cc21 [ML-77-169, 1-ethyl-6-fluoro-7-(4-(naphthalen-1-yl)piperazin-1-yl)-4-oxo-1,4-dihydroquinoline-3-carboxylic acid]",1-2,2,1,1,2,2,,,,,,,,
O=C(O)c1cn(C2CC2)c2cc(N3CCN(CCc4cccc5ccccc45)CC3)c(F)cc2c1=O [ML-77-171],2-4,4,4,4,2,0.5,,,,,,,,
"CCn1cc(C(=O)O)c(=O)c2cc(F)c(N3CCN(CCc4cccc5ccccc45)CC3)cc21 [ML-77-173, 1-ethyl-6-fluoro-7-(4-(2-(naphthalen-1-yl)ethyl)piperazin-1-yl)-4-oxo-1,4-dihydroquinoline-3-carboxylic acid]",4,4-8,4,4,4-8,2-4,,,,,,,,
C[C@H]1COc2c(N3CCCN(c4ncc(F)cn4)CC3)c(F)cc3c(=O)c(C(=O)O)cn1c23 [ML-83-034],,,,,,,,,,,,,8,16
